From ChEMBL document CHEMBL5715936, “Selective Itk inhibitors block T-cell activation and murine lung inflammation” (Biochemistry, 2004)
Activity calls are given as the source filed them. No cut-off for these calls is given here.

Tests used:
[1] = molecular target: Tyrosine-protein kinase SYK (Homo sapiens, UniProt P43405); assay: Inhibition of Syk (unknown origin) using GST-SLP-76 as peptide substrate incubated for 10 mins in presence of [gamma-33P]ATP by scintillation counter assay
T-cell line = assay: Anti-proliferative activity against irradiated APC induced human T cell incubated for 3 days; format: functional, cell-based; conditions: light or radiation study, 72 h
[2] = molecular target: Tyrosine-protein kinase Fyn (Homo sapiens, UniProt P06241); assay: Inhibition of Fyn (unknown origin) using GST-SLP-76 as peptide substrate incubated for 10 mins in presence of [gamma-33P]ATP by scintillation counter assay
Sequence of Tyrosine-protein kinase Fyn (P06241 whole entry): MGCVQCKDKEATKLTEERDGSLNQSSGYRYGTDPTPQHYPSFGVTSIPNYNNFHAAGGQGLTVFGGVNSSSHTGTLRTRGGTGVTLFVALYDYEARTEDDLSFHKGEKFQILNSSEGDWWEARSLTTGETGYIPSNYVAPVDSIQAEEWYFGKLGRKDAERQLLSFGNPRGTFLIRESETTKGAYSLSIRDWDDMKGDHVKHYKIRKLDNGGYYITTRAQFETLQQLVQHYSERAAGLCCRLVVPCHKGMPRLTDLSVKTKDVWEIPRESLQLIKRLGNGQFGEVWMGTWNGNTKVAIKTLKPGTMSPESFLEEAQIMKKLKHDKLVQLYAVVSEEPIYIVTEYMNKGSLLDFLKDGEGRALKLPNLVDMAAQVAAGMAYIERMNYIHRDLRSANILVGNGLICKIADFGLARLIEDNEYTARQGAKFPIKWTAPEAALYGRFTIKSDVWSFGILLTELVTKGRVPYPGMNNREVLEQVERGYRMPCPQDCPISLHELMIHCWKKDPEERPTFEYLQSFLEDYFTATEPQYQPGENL

[3] = molecular target: Tyrosine-protein kinase BTK (Homo sapiens, UniProt Q06187); assay: Inhibition of Btk (unknown origin) using GST-SLP-76 as peptide substrate incubated for 10 mins in presence of [gamma-33P]ATP by scintillation counter assay
Sequence of Tyrosine-protein kinase BTK (Q06187 whole entry): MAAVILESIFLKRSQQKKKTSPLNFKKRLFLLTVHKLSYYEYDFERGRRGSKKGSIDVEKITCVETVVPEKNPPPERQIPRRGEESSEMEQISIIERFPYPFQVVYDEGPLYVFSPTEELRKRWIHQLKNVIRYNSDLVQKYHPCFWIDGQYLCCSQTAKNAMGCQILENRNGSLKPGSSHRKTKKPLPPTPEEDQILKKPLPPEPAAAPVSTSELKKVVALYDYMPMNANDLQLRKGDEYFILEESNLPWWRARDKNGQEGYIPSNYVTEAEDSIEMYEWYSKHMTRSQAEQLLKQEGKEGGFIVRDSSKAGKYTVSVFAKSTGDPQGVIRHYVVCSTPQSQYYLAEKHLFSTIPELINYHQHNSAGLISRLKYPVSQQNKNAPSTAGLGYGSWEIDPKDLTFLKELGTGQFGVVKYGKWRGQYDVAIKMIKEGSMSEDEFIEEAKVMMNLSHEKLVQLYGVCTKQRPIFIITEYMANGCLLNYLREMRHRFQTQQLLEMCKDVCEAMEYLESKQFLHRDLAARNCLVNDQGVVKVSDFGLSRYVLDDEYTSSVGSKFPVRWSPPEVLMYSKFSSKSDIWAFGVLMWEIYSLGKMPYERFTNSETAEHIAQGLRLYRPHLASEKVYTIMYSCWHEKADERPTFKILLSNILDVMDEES

Mus musculus [4] = assay: In vivo inhibition of IL-2 production in Balb/c mouse serum at >=50 mg/kg, sc administered for 15 mins in presence of anti-CD3 antibody by ELISA analysis; format: functional, organism-based
[5] = molecular target: T1, Tyrosine-protein kinase ITK/TSK (Homo sapiens) (UniProt Q08881); assay: Inhibition of Itk in EGF-stimulated human A549 cells assessed as reduction in PLCgamma1 phosphorylation at <=10 uM incubated for 20 mins by Western blotting analysis; format: cell-based
T1 sequence (whole entry): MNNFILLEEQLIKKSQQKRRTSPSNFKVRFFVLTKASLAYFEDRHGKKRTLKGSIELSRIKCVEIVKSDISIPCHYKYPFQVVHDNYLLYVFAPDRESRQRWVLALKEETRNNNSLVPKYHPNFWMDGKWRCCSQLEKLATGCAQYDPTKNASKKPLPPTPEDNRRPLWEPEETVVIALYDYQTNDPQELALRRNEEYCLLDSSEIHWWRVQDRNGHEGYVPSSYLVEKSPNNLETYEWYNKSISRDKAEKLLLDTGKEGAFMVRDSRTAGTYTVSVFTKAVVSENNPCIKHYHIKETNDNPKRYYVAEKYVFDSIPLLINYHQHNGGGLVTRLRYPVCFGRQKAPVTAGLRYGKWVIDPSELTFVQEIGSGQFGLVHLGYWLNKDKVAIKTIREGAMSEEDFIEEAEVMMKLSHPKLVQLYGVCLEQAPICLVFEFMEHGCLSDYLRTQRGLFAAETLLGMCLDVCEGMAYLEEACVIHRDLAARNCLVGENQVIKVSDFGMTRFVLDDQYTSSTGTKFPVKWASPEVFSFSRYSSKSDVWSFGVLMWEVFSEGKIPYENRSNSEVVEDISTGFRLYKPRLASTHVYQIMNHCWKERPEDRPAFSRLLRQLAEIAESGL

[6] = molecular target: T2, Tyrosine-protein kinase Tec (Homo sapiens, UniProt P42680); assay: Inhibition of Tec (unknown origin) using GST-SLP-76 as peptide substrate incubated for 10 mins in presence of [gamma-33P]ATP by scintillation counter assay
T2 sequence (P42680 whole entry): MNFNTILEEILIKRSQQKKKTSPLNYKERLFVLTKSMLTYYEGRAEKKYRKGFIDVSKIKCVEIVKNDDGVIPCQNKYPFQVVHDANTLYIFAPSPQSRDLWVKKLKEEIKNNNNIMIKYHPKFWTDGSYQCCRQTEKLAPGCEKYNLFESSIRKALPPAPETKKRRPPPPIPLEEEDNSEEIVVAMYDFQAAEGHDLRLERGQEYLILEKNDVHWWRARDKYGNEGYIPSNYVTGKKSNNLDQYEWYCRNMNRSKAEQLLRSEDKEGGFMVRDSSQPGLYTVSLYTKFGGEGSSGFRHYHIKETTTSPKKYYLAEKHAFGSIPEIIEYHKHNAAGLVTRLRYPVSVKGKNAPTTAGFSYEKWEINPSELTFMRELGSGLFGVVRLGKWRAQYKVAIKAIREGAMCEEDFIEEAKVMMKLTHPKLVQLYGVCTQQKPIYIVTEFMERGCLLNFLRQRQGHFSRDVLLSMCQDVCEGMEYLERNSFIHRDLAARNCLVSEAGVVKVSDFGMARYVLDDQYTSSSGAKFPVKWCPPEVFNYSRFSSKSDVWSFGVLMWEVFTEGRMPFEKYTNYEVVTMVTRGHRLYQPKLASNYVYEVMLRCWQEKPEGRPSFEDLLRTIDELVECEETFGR

[7] = molecular target: Glycogen synthase kinase-3 beta (Homo sapiens, UniProt P49841); assay: Inhibition of GSK-3beta (unknown origin) using GST-SLP-76 as peptide substrate incubated for 10 mins in presence of [gamma-33P]ATP by scintillation counter assay
Sequence of Glycogen synthase kinase-3 beta (P49841 whole entry): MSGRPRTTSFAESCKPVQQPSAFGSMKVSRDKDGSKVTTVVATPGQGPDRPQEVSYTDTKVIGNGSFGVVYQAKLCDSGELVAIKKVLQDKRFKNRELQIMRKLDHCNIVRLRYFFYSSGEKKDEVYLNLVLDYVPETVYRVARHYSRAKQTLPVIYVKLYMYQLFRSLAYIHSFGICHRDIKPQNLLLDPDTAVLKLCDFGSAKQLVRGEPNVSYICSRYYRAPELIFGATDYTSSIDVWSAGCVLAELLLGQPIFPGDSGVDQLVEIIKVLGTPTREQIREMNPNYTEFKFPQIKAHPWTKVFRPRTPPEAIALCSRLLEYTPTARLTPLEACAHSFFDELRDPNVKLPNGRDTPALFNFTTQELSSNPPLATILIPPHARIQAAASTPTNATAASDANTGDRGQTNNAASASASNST

[8] = Inhibition of CaMKII (unknown origin) using GST-SLP-76 as peptide substrate incubated for 10 mins in presence of [gamma-33P]ATP by scintillation counter assay; set-up: species or system Homo sapiens
[9] = molecular target: T1, Tyrosine-protein kinase ITK/TSK (Homo sapiens); assay: Inhibition of Itk in human Jurkat T cells assessed as inhibition of tyrosine phosphorylation with 145 kDa molecular weight at 0.1 to 10 uM incubated for 20 mins in presence of CD3 antibody G19-4 by Western blotting analysis; format: cell-based; conditions: dose 0.1-10 µM
[10] = molecular target: cAMP-dependent protein kinase (PKA) (Homo sapiens, UniProt P22694+P17612+P22612); assay: Inhibition of PKA (unknown origin) using GST-SLP-76 as peptide substrate incubated for 10 mins in presence of [gamma-33P]ATP by scintillation counter assay; format: protein assay
Insulin receptor = Insulin receptor (Homo sapiens, UniProt P06213); assay: Inhibition of IR (unknown origin) using GST-SLP-76 as peptide substrate incubated for 10 mins in presence of [gamma-33P]ATP by scintillation counter assay
Sequence of Insulin receptor (P06213 28-758 limits assumed): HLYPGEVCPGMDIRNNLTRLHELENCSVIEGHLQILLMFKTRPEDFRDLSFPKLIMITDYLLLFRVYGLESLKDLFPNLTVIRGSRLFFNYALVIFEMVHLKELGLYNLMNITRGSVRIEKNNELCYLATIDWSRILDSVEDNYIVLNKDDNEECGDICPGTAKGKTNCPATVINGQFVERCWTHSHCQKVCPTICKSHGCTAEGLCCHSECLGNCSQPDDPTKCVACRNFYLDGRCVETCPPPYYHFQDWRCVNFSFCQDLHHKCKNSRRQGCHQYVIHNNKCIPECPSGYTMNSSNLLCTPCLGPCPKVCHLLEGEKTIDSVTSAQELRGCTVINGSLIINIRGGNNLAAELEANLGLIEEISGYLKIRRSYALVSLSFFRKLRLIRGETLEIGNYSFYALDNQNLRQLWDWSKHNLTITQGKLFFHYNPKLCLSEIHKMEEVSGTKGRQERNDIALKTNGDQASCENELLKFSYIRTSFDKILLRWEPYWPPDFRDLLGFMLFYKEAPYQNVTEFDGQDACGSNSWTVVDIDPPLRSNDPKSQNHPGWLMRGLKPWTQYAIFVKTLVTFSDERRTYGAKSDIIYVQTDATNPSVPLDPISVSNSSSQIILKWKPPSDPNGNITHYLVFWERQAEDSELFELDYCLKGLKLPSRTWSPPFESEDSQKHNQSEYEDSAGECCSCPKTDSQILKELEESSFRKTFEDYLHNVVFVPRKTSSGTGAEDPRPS
Sequence of Insulin receptor (P06213 763-1382 limits assumed): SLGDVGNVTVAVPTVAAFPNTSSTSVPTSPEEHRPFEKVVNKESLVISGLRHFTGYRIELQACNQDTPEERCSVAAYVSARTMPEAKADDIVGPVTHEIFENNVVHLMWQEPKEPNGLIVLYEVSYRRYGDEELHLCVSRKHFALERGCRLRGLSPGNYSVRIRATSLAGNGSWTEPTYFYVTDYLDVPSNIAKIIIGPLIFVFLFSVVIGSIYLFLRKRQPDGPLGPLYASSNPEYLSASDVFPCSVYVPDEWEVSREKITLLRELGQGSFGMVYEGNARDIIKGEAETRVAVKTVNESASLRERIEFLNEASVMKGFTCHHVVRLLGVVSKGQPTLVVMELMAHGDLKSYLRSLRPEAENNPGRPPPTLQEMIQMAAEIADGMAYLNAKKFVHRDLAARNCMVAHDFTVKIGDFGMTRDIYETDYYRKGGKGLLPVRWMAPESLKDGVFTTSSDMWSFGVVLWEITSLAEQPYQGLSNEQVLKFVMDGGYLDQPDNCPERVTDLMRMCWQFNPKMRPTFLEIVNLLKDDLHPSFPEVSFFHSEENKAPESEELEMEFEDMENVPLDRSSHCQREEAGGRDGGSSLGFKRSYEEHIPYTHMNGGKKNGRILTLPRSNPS

[11] = molecular target: T1, Tyrosine-protein kinase ITK/TSK (Homo sapiens); assay: Inhibition of Itk in human Jurkat T cells assessed as inhibition of PLCgamma1 phosphorylation incubated for 20 mins in presence of CD3 antibody G19-4 by Western blotting analysis; format: cell-based; conditions: dose 0.1-10 µM
[12] = molecular target: Inhibitor of nuclear factor kappa-B kinase subunit beta (Homo sapiens, UniProt O14920); assay: Inhibition of IKKbeta (unknown origin) using GST-SLP-76 as peptide substrate incubated for 10 mins in presence of [gamma-33P]ATP by scintillation counter assay
Sequence of Inhibitor of nuclear factor kappa-B kinase subunit beta (O14920 whole entry): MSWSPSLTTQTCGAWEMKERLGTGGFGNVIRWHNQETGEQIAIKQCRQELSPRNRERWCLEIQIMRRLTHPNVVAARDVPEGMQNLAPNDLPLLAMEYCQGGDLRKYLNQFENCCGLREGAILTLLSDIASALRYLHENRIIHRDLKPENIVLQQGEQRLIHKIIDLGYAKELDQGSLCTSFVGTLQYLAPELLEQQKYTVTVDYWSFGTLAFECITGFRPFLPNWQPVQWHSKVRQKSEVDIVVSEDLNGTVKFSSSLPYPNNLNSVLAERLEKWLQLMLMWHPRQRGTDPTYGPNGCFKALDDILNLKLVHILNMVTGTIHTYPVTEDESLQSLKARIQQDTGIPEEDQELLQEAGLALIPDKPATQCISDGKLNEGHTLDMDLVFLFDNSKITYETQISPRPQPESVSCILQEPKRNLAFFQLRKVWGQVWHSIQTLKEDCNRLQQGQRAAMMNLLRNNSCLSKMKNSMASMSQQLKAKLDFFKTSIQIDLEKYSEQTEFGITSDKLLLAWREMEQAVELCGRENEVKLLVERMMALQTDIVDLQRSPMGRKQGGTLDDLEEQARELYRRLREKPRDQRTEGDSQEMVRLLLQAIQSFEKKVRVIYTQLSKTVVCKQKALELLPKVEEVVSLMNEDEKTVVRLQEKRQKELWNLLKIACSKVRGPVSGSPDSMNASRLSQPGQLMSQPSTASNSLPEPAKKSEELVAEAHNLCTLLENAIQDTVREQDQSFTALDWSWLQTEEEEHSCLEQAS

[13] = molecular target: Tyrosine-protein kinase ITK/TSK (Mus musculus, UniProt Q03526); assay: (§1) Inhibition of Itk in mouse EL4 cells assessed as inhibition of IL-2 secretion incubated for 16 hrs in presence of anti-CD3 antibody G19-4 by ELISA analysis; format: cell-based
Sequence of Tyrosine-protein kinase ITK/TSK (Q03526 whole entry): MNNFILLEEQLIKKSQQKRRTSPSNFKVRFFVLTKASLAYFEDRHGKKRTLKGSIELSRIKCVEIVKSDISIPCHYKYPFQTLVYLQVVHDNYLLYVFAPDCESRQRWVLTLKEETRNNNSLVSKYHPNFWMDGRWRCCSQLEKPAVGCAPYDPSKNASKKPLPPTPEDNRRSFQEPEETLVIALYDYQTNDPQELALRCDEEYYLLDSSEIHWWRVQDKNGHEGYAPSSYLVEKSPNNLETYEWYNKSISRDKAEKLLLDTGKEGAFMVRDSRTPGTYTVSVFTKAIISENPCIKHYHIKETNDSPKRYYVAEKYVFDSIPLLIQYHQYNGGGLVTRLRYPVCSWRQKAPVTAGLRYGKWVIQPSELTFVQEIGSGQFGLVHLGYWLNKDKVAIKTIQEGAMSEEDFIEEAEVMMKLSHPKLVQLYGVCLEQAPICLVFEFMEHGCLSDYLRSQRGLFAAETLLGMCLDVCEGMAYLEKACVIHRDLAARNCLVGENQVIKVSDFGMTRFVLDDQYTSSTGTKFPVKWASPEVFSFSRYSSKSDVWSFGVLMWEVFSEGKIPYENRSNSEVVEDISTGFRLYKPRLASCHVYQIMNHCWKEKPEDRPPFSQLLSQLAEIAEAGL

[14] = molecular target: Tyrosine-protein kinase ITK/TSK (Mus musculus) (UniProt Q03526); assay: as §1; format: cell-based
Sequence of Tyrosine-protein kinase ITK/TSK (Mus musculus) (Q03526 whole entry): as above

[15] = molecular target: Cyclin-dependent kinase 2 (Homo sapiens, UniProt P24941); assay: Inhibition of Cdk2 (unknown origin) using GST-SLP-76 as peptide substrate incubated for 10 mins in presence of [gamma-33P]ATP by scintillation counter assay
Mus musculus [16] = assay: Anti-inflammatory activity against ovalbumin induced Balb/c mouse bronchoalveolar lavage assessed as reduction in eosinophil infiltration administered twice daily for 3 days by microscopic analysis; format: functional, organism-based; conditions: dose 5-25 mg/kg, route sc, time 3.0 day
Mus musculus [17] = assay: Anti-inflammatory activity against ovalbumin induced Balb/c mouse bronchoalveolar lavage assessed as reduction in total cell infiltration administered twice daily for 3 days by microscopic analysis; format: functional, organism-based; conditions: dose 5-25 mg/kg, route sc, time 3.0 day

Row | SMILES | IC50 [1] | IC50 (T-cell line) | IC50 [2] | IC50 [3] | inhibition (Mus musculus [4]) | inhibition [5] | IC50 [6] | IC50 [7] | IC50 [8] | inhibition [9] | IC50 [10] | IC50 (Insulin receptor) | inhibition [11] | IC50 [12] | IC50 [13] | inhibition [14] | IC50 [15] | Activity (Mus musculus [16]) | Activity (Mus musculus [17])
1 | CC(=O)N1CCN(C(=O)c2cc(CSc3cnc(NC(=O)c4ccc(CNC(C)C(C)(C)C)cc4)s3)cc(C)c2C)CC1 (configuration not stated) | > 50 µM | 0.35 µM | 8.6 µM | > 50 µM | Active | Active | > 50 µM | 47.4 µM | > 50 µM | Active | > 50 µM | 4.4 µM | Dose-Dependent Effect | > 50 µM | 0.25 µM | Dose-Dependent Effect | – | – | –
2 | COc1cc(C)c(Sc2cnc(NC(=O)c3ccc(CNC(C)C(C)(C)C)cc3)s2)cc1C(=O)N1CCN(C(C)=O)CC1 (configuration not stated) | > 50 µM | 0.43 µM | 1.1 µM | 4.1 µM | – | Active | 17 µM | 36 µM | 33.5 µM | Active | > 50 µM | 1.1 µM | Dose-Dependent Effect | > 50 µM | – | – | 29 µM | Dose-Dependent Effect | Dose-Dependent Effect
